# Test results: PubChem BioAssay (NCI)
#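 Method: 48-hour compound exposure of cells in 96-well plates, five concentrations, linear interpolation of endpoints. Definition used: TGI = concentration required for complete inhibition of growth.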
# Columns and labels:
# Assay in all cases: NCI-60 cell line screen, 48 h
# SF-539 CNS = system: SF-539 CNS
# UACC-62 melanoma = system: UACC-62 melanoma
# OVCAR-8 ovarian = system: OVCAR-8 ovarian
# 786-0 renal = system: 786-0 renal
# SK-OV-3 ovarian = system: SK-OV-3 ovarian
# HCT-15 colon = system: HCT-15 colon
# RXF 393 renal = system: RXF 393 renal
# NCI/ADR-RES ovarian = system: NCI/ADR-RES ovarian
# BT-549 breast = system: BT-549 breast
# HOP-92 NSCLC = system: HOP-92 NSCLC
# T-47D breast = system: T-47D breast
# TK-10 renal = system: TK-10 renal
# EKVX NSCLC = system: EKVX NSCLC
# M14 melanoma = system: M14 melanoma
# OVCAR-3 ovarian = system: OVCAR-3 ovarian
# SK-MEL-28 melanoma = system: SK-MEL-28 melanoma
# A549 NSCLC = system: A549 NSCLC
# KM12 colon = system: KM12 colon
# SN12C renal = system: SN12C renal
# MALME-3M melanoma = system: MALME-3M melanoma
# K-562 leukemia = system: K-562 leukemia
# SK-MEL-2 melanoma = system: SK-MEL-2 melanoma
# NCI-H522 lung = system: NCI-H522 lung
# UACC-257 melanoma = system: UACC-257 melanoma
# IGROV1 ovarian = system: IGROV1 ovarian
# HCT-116 colon = system: HCT-116 colon
# DU-145 prostate = system: DU-145 prostate
# SW-620 colon = system: SW-620 colon
# NCI-H226 lung = system: NCI-H226 lung
# SF-268 CNS = system: SF-268 CNS
# HS 578T breast = system: HS 578T breast
# MDA-MB-435 = system: MDA-MB-435
# SR leukemia = system: SR leukemia
# NCI-H460 lung = system: NCI-H460 lung
# HOP-62 NSCLC = system: HOP-62 NSCLC
# OVCAR-4 ovarian = system: OVCAR-4 ovarian
# MDA-N = system: MDA-N
# SK-MEL-5 melanoma = system: SK-MEL-5 melanoma
# HL-60(TB) leukemia = system: HL-60(TB) leukemia
# HT29 colon = system: HT29 colon
# NCI-H23 lung = system: NCI-H23 lung
# CCRF-CEM leukemia = system: CCRF-CEM leukemia
# MCF7 breast = system: MCF7 breast
# SNB-75 CNS = system: SNB-75 CNS
# MDA-MB-231 breast = system: MDA-MB-231 breast
# CAKI-1 renal = system: CAKI-1 renal
# ACHN renal = system: ACHN renal
# COLO 205 colon = system: COLO 205 colon
# MOLT-4 leukemia = system: MOLT-4 leukemia
# U251 CNS = system: U251 CNS
# A498 renal = system: A498 renal
# LOX IMVI melanoma = system: LOX IMVI melanoma
# UO-31 renal = system: UO-31 renal
# OVCAR-5 ovarian = system: OVCAR-5 ovarian
# SF-295 CNS = system: SF-295 CNS
# PC-3 prostate = system: PC-3 prostate
# RPMI-8226 leukemia = system: RPMI-8226 leukemia
# SNB-19 CNS = system: SNB-19 CNS
# HCC-2998 colon = system: HCC-2998 colon
compound,measurement,setting,value
Brc1sc(Br)c2c1[C@H](Br)C[C@@H]2Br,TGI,SF-539 CNS,44.5 µM
same,TGI,UACC-62 melanoma,88 µM
same,TGI,OVCAR-8 ovarian,57.2 µM
same,TGI,786-0 renal,> 100 µM
same,TGI,SK-OV-3 ovarian,> 100 µM
same,TGI,HCT-15 colon,> 100 µM
same,TGI,RXF 393 renal,10.4 µM
same,TGI,NCI/ADR-RES ovarian,63.9 µM
same,TGI,BT-549 breast,79 µM
same,TGI,HOP-92 NSCLC,61.5 µM
same,TGI,T-47D breast,> 100 µM
same,TGI,TK-10 renal,> 100 µM
same,TGI,EKVX NSCLC,> 100 µM
same,TGI,M14 melanoma,> 100 µM
same,TGI,OVCAR-3 ovarian,> 100 µM
same,TGI,SK-MEL-28 melanoma,> 100 µM
same,TGI,A549 NSCLC,> 100 µM
same,TGI,KM12 colon,> 100 µM
same,TGI,SN12C renal,> 100 µM
same,TGI,MALME-3M melanoma,63.2 µM
same,TGI,K-562 leukemia,> 100 µM
same,TGI,SK-MEL-2 melanoma,56 µM
same,TGI,NCI-H522 lung,34.2 µM
same,TGI,UACC-257 melanoma,> 100 µM
same,TGI,IGROV1 ovarian,> 100 µM
same,TGI,HCT-116 colon,> 100 µM
same,TGI,DU-145 prostate,61.2 µM
same,TGI,SW-620 colon,> 100 µM
same,TGI,NCI-H226 lung,59.2 µM
same,TGI,SF-268 CNS,53.4 µM
same,TGI,HS 578T breast,77.1 µM
same,TGI,MDA-MB-435,> 100 µM
same,TGI,SR leukemia,97.7 µM
same,TGI,NCI-H460 lung,> 100 µM
same,TGI,HOP-62 NSCLC,> 100 µM
same,TGI,OVCAR-4 ovarian,44.9 µM
same,TGI,MDA-N,> 100 µM
same,TGI,SK-MEL-5 melanoma,> 100 µM
same,TGI,HL-60(TB) leukemia,75.2 µM
same,TGI,HT29 colon,> 100 µM
same,TGI,NCI-H23 lung,51.1 µM
same,TGI,CCRF-CEM leukemia,> 100 µM
same,TGI,MCF7 breast,98.5 µM
same,TGI,SNB-75 CNS,85.3 µM
same,TGI,MDA-MB-231 breast,> 100 µM
same,TGI,CAKI-1 renal,> 100 µM
same,TGI,ACHN renal,97.9 µM
same,TGI,COLO 205 colon,> 100 µM
same,TGI,MOLT-4 leukemia,95.5 µM
same,TGI,U251 CNS,> 100 µM
same,TGI,A498 renal,> 100 µM
same,TGI,LOX IMVI melanoma,43.8 µM
same,TGI,UO-31 renal,45.8 µM
same,TGI,OVCAR-5 ovarian,> 100 µM
COc1ccc2c(c1)O[C@@H]1[C@@H](OC3OC(CO)C(O)C(O)C3O)Oc3cc(OC)c(OC)cc3[C@]1(O)C2=O (some centres not stated),TGI,SF-539 CNS,> 100 µM
same,TGI,UACC-62 melanoma,> 100 µM
same,TGI,OVCAR-8 ovarian,> 100 µM
same,TGI,786-0 renal,> 100 µM
same,TGI,SK-OV-3 ovarian,> 100 µM
same,TGI,HCT-15 colon,> 100 µM
same,TGI,SF-295 CNS,> 100 µM
same,TGI,RXF 393 renal,> 100 µM
same,TGI,NCI/ADR-RES ovarian,> 100 µM
same,TGI,BT-549 breast,> 100 µM
same,TGI,PC-3 prostate,> 100 µM
same,TGI,HOP-92 NSCLC,> 100 µM
same,TGI,T-47D breast,> 100 µM
same,TGI,TK-10 renal,> 100 µM
same,TGI,EKVX NSCLC,> 100 µM
same,TGI,M14 melanoma,> 100 µM
same,TGI,OVCAR-3 ovarian,> 100 µM
same,TGI,SK-MEL-28 melanoma,> 100 µM
same,TGI,A549 NSCLC,> 100 µM
same,TGI,KM12 colon,> 100 µM
same,TGI,RPMI-8226 leukemia,> 100 µM
same,TGI,SN12C renal,> 100 µM
same,TGI,MALME-3M melanoma,> 100 µM
same,TGI,K-562 leukemia,> 100 µM
same,TGI,SK-MEL-2 melanoma,> 100 µM
same,TGI,NCI-H522 lung,> 100 µM
same,TGI,UACC-257 melanoma,> 100 µM
same,TGI,SNB-19 CNS,> 100 µM
same,TGI,IGROV1 ovarian,> 100 µM
same,TGI,HCT-116 colon,> 100 µM
same,TGI,DU-145 prostate,> 100 µM
same,TGI,SW-620 colon,> 100 µM
same,TGI,NCI-H226 lung,> 100 µM
same,TGI,SF-268 CNS,> 100 µM
same,TGI,HS 578T breast,> 100 µM
same,TGI,MDA-MB-435,> 100 µM
same,TGI,SR leukemia,> 100 µM
same,TGI,NCI-H460 lung,> 100 µM
same,TGI,HOP-62 NSCLC,> 100 µM
same,TGI,OVCAR-4 ovarian,> 100 µM
same,TGI,MDA-N,> 100 µM
same,TGI,SK-MEL-5 melanoma,> 100 µM
same,TGI,HL-60(TB) leukemia,> 100 µM
same,TGI,HT29 colon,> 100 µM
same,TGI,NCI-H23 lung,> 100 µM
same,TGI,CCRF-CEM leukemia,> 100 µM
same,TGI,HCC-2998 colon,> 100 µM
same,TGI,SNB-75 CNS,> 100 µM
same,TGI,MDA-MB-231 breast,> 100 µM
same,TGI,CAKI-1 renal,> 100 µM
same,TGI,ACHN renal,> 100 µM
same,TGI,COLO 205 colon,> 100 µM
same,TGI,MOLT-4 leukemia,> 100 µM
same,TGI,U251 CNS,> 100 µM
same,TGI,A498 renal,> 100 µM
same,TGI,LOX IMVI melanoma,> 100 µM
same,TGI,UO-31 renal,> 100 µM
same,TGI,OVCAR-5 ovarian,> 100 µM
